Results from publication PMC5505240, “The structure of a complex of the lactonohydrolase zearalenone hydrolase with the hydrolysis product of zearalenone at 1.60 Å resolution” (Acta Crystallographica. Section F, Structural Biology …, 2017).

Experiments:
[1] = target: T1, ZHD (zearalenone hydrolase) (Clonostachys rosea, UniProt Q8NKB0, V26I/P69A/V87I/K148N/M168L/D170V/K198Q/L200V); assay: HPLC of remaining ZEN; type: biochemical; conditions: 100 mM Tris-HCl pH 9.5, 30 °C, 15 nM ZHD, 1-50 µM ZEN
T1 construct: gene zhd101; full length; natural clone from genomic DNA of a CGMCC strain; extra N-terminal MD; E. coli BL21(DE3); dimer

[2] = target: the molecule itself; assay: SEC; HiLoad 16/60 Superdex 200 prep-grade column, last step of the purification; oligomeric state from the elution position

C[C@H]1CCCC(=O)CCC/C=C/c2cc(O)cc(O)c2C(=O)O1 [ZEN, zearalenone]
Km [1]: 3.5 µM

B1: Zearalenone hydrolase (ZHD), C-terminally His6-tagged (enzyme, Clonostachys rosea)
chain: MDMRTRSTISTPNGITWYYEQEGTGPDIVLVPDGLGECQMFDSSVSQIAAQGFRVTTFDMPGMSRSAKAPAETYTEVTAQKLASYVISILDALDIKHATVWGCSSGASTVVALLLGYPDRIRNAMCHELPTKLLDHLSNTAVLEDEEISNILANVMLNDVSGGSEAWQALGVEVHARLHKNYPVWARGYPRTIPPSAPVQDVEALRGKPLDWTVGAATPTESFFDNIVTATKAGVNIGLLPGMHFPYVSHPDVFAKYVVETTQKHLWNSSSVDKLAAALE
notes: zearalenone hydrolase (ZHD) cloned from genomic DNA of a Clonostachys rosea strain (CGMCC); natural strain variant with eight amino-acid variations compared with GenBank ALI16790.1; 14-amino-acid linker between ZHD and the C-terminal His6 tag; The His6 is written under tags, the linker as a part; The substitutions count against GenBank ALI16790.1, not necessarily against the UniProt entry; also …
stoichiometry N [2]: 2
